In publication PMC2866477, “Anticancer Effect and Structure-Activity Analysis of Marine Products Isolated from Metabolites of Mangrove Fungi in the South China Sea” (Marine Drugs, 2010):

Columns and labels:
MCF-7/adr cells = assay: MTT cytotoxicity assay, MCF-7/adr cells; format: cell-based; conditions: Homo sapiens, NCI/ADR-RES, 72 h treatment, doxorubicin-selected ABCB1-overexpressing MCF-7/adr cells
Experimental: (§1) The cell lines were cultured in DMEM or RPMI 1640 containing 10% fetal bovine serum at 37 °C in the presence of 5% CO2. The cell lines were the oral epidermoid carcinoma cell lines KB and its vincristine-selected ABCB1-overexpressing KBv200 [10]; the breast carcinoma cell lines MCF-7 and its doxorubicin-selected ABCB1-overexpressing MCF-7/adr; the lung carcinoma cell line A549 and normal liver cell line LO2.
(§2) The MTT assay was used to evaluate the cytotoxicity of a number of compounds previously isolated from mangrove-derived fungi as described. Briefly, 3–4 × 10^3 cells were incubated in 96-well plates and allowed to attach overnight before compounds at full range concentrations were added. The concentrations were chosen so that the highest concentration killed most of the cells and the lowest killed none of the cells. After 72 h treatment, 0.5 mg/ml MTT was added to each well for an additional 4 h. Subsequently, the supernatant was removed, and the purple MTT-formazan crystals were dissolved by DMSO. Finally, absorbance was recorded at 540 nm with 655 nm as a reference filter using a Model 550 Microplate Reader (Bio-Rad, USA). Experiments were performed at least three times. The standard chemotherapeutic agent doxorubicin was used as a positive control in MTT assay and normal liver cell line LO2 was used to show whether cytotoxic activity was tumor-specific. The concentrations required to inhibit growth by 50% (IC50) were calculated from survival curves using the Bliss method.

normal liver LO2 cells = assay: MTT cytotoxicity assay, normal liver LO2 cells; format: cell-based; conditions: for IC50: Homo sapiens, L02, 72 h treatment, normal liver LO2 cells
Experimental: as §1, §2

KB cells = assay: MTT cytotoxicity assay, KB cells; format: cell-based; conditions: Homo sapiens, 72 h treatment, KB oral epidermoid carcinoma cells
Experimental: as §1, §2

pcDNA3.1(+) DNA = assay: DNA binding assay (agarose gel electrophoresis); conditions: 10, 100 or 200 μmol/L with 1 μg pcDNA3.1(+), 37 °C, 3 h; 1% agarose gel
Experimental: 10, 100 or 200 μmol/L compounds were incubated with 1 μg pcDNA3.1(+) at 37 °C for 3 h. The mixtures were then subjected to electrophoresis on a 1% agarose gel, pre-stained with 0.5 μg/ml ethidium bromide, at 60 V for 40 min. Doxorubicin (DOX) was used as a positive control.

MCF-7 cells = assay: MTT cytotoxicity assay, MCF-7 cells; format: cell-based; conditions: Homo sapiens, MCF7, 72 h treatment, MCF-7 breast carcinoma cells
Experimental: as §1, §2

[1] = test system: KB, KBv200, MCF-7, MCF-7/adr, and A549 cells; assay: MTT anticancer screen, cancer cell panel; format: cell-based, human; conditions: for IC50: Homo sapiens, MTT, KB, KBv200, MCF-7, MCF-7/adr, and A549 cells, read-out: IC50 values (potent cytotoxic activity); for IC50 values in MDR cells compared with parental sensitive cells: KBv200, MCF-7/adr versus KB, MCF-7
Experimental: as §1, §2

KBv200 cells = assay: MTT cytotoxicity assay, KBv200 cells; format: cell-based; conditions: Homo sapiens, 72 h treatment, vincristine-selected ABCB1-overexpressing KBv200 cells
Experimental: as §1, §2

A549 cells = assay: MTT cytotoxicity assay, A549 cells; format: cell-based; conditions: Homo sapiens, 72 h treatment, A549 lung carcinoma cells
Experimental: as §1, §2

Cc1c(CO)cc([N+](=O)[O-])cc1CO [Compound 1]
IC50 (MCF-7/adr cells): 2340 ± 110 nM | IC50 (normal liver LO2 cells): 6590 ± 440 nM | sensitivity of cancer cells compared with normal liver LO2 cells (normal liver LO2 cells; cancer cells versus LO2 cells): more sensitive | IC50 (KB cells): 1570 ± 80 nM | DNA intercalation / binding to DNA (pcDNA3.1(+) DNA): none of the compounds investigated here showed binding to DNA | IC50 (MCF-7 cells): 1380 ± 70 nM | IC50 [1]: < 50000 nM | IC50 (KBv200 cells): 2670 ± 170 nM | IC50 (A549 cells): 2710 ± 150 nM

C#CCOc1cc(C)cc2c1C(=O)c1c(O)cccc1C2=O [Compound 14]
IC50 (MCF-7/adr cells): > 50000 nM | IC50 (normal liver LO2 cells): 37500 ± 1640 nM | IC50 (KB cells): 11900 ± 690 nM | DNA intercalation / binding to DNA (pcDNA3.1(+) DNA): none of the compounds investigated here showed binding to DNA | IC50 (MCF-7 cells): 35200 ± 1870 nM | IC50 [1]: < 50000 nM | IC50 values in MDR cells compared with parental sensitive cells [1]: much higher IC50 values | IC50 (KBv200 cells): > 50000 nM | IC50 (A549 cells): 23500 ± 1320 nM

COc1cccc2c1C(=O)c1c(O)c3c(c(O)c1C2=O)C[C@@](O)(C(=O)CO)C[C@@H]3O[C@H]1C[C@H](N)[C@H](O)[C@H](C)O1 [Doxorubicin, reference compound]
IC50 (MCF-7/adr cells): 22300 ± 1560 nM | IC50 (normal liver LO2 cells): 110 ± 10 nM | IC50 (KB cells): 50 ± 3 nM | DNA intercalation / binding to DNA (pcDNA3.1(+) DNA): effectively intercalated into DNA in a concentration-dependent manner | IC50 (MCF-7 cells): 390 ± 20 nM | IC50 values in MDR cells compared with parental sensitive cells [1]: much higher IC50 values | IC50 (KBv200 cells): 3210 ± 120 nM | IC50 (A549 cells): 1670 ± 90 nM
